The values below come from US10711006B2, “Selective Bruton's tyrosine kinase inhibitor and use thereof” (HANGZHOU HERTZ PHARMACEUTICAL CO., LTD., priority 2016, dated 2020).

In one data set the target is JAK3 (Homo sapiens (Human), UniProt P52333). Description: Kinase selectivity experiment, JAK3. The format is biochemical. The settings on record: read-out: Inhibitory activity against JAK3 (IC50). The protocol:
(§1) A 1× kinase base buffer and a reaction stop buffer for respective kinases in the experiment were prepared as required.
(§2) Preparation of Compounds to be Tested:
(§3) 2) diluting each compound at a 5-fold concentration gradient in a 96-well plate to 6 to 7 concentrations and ensuring that the drug volume in each well was 10 μl; and at the same time adding 100 μl of DMSO to prepare a blank control group and also preparing a negative control group without the enzyme substrate; and
(§4) 3) preparing another 96-well plate, adding 10 μl of each of the above compounds to 90 μl of the 1× kinase base buffer and mixing for 10 minutes to be uniform.
(§5) Preparation of the Plate to be Tested:
(§6) 1) 5 μl of the mixed solution prepared as above in the 96-well plate was taken and transferred to a 384-well plate, with two replicate wells for each compound.
(§7) 1) Preparing a 2.5× kinase solution and adding a corresponding 1× kinase base buffer;
(§8) 2) preparing a 2.5× polypeptide solution and adding FAM-labeled polypeptide and ATP in the 1× kinase base buffer; and
(§9) 3) adding 10 μl of 2.5× kinase solution to a 384-well plate to be tested, placing in a room-temperature environment for 10 minutes, and then adding 10 μl of the 2.5× polypeptide solution, reacting at 28° C. for 1 hour, and then adding 25 μl of a reaction stop buffer.
(§10) The Caliper program reads the plate and uses the data to obtain the IC50 values of the corresponding compounds against kinases.

For data set [1], the system named is arthritis induced by anti-collagen antibodies and lipopolysaccharides. Kind of data set: Rheumatoid arthritis model induced by anti-collagen antibodies and lipopolysaccharides. The following applies: for level of IL-1β in serum (in words): 10 mg/kg orally once a day; for level of IL-1β in serum (in words) / inflammatory cell infiltration, synovial hyperplasia, inflammatory granulation tissue formation, necrotic tissue: versus model group; for IL-1β: serum on Day 13, 10 mg/kg orally once a day Day 2 to Day 12; for inflammatory cell infiltration, synovial hyperplasia, inflammatory granulation tissue formation, necrotic tissue: tissue samples after treatment. The format is in vivo, Balb/c mice. Here is the method: In Balb/c mice, arthritis was induced by administration of anti-collagen antibodies and lipopolysaccharides (Nandakumar et al., Am. J. Pathol. 2003, 163: 1827-1837).
The specific method was as follows: On Day 0, female Balb/c mice were intravenously injected with anti-type II collagen ChemicomAb mixture in a dose of 100 mg/kg, and on Day 1, lipopolysaccharide was intraperitoneally injected in a dose of 1.25 mg/kg. From Day 2 to Day 12, Compounds 15a, 17a, 24a and 24e were orally administered once a day in a dose of 10 mg/kg. On Day 13 after abdominal anesthesia, […] of blood was taken from the femoral artery and centrifuged at 3000 r/min for 20 minutes, serum was taken to detect IL-1β with a test kit, and related tissue samples were observed.

In data set [2] the test system is human mantle cell lymphoma (MINO). Kind of data set: In-vitro tumor cell proliferation inhibition (CCK-8), MINO. The settings on record: 72 h, read-out: Tumor cell proliferation inhibitory activity (IC50, μM) MINO.
Experimental: (§11) The in-vitro antitumor activity assay was carried out on the synthesized compound by using different solid tumors and leukemia cell lines:
(§12) Cell lines: human lung cancer cell (A549), human mantle cell lymphoma (MINO), diffuse giant B-cell lymphoma (OCI-LY10), and human diffuse large B lymphoma (TMD-8).
(§13) Preparation method of the drug: the drug was dissolved in DMSO to make a 10 mM stock solution, and then the stock solution was diluted in a certain ratio to obtain 5 different concentrations (test concentration 100×). In-vitro culture of tumor cells:
(§14) The tumor cells A549, MINO, OCI-LY10, and TMD-8 were seeded in a 96-well plate at 4000 cells/200 μL/well and then incubated overnight at 37° C. in a 5% CO2 cell culture incubator. 2 μL of the compound was added to each well to final concentrations of 50 μM, 10 μM, 2 μM, 0.4 μM, and 0.08 μM and then incubated for 72 hours at 37° C. in a 5% CO2 cell incubator, with DMSO (2%) as a control group. […] Wells loaded with the corresponding amount of cell culture fluid the and CCK-8 solution but no cells were considered as blank controls. The absorbance (OD value) was measured at 450 nm using a microplate reader, and the obtained data was used to calculate IC50.
In the next data set the target is FGR (Homo sapiens (Human), UniProt P09769). Kind of data set: Kinase selectivity experiment, FGR. The data set is classed as biochemical. The following applies: read-out: Inhibitory activity against FGR (IC50). Here is the method:
as §1, §2, §3, §4, §5, §6, §7, §8, §9, §10

A further data set has as its target ITK (Homo sapiens (Human), UniProt Q08881). Description: Kinase selectivity experiment, ITK. The format is biochemical. The following applies: read-out: Inhibitory activity against ITK (IC50). The protocol:
as §1, §2, §3, §4, §5, §6, §7, §8, §9, §10

Data set [3] has as its system Mino subcutaneous xenograft tumor. Description: In-vivo pharmacodynamic study on Mino subcutaneous xenograft tumor models. The following applies: CB17 SCID mice, intragastric, twice a day. The protocol: In CB17 SCID mice, 0.2 mL of cell suspension containing 5×10^6 Mino cells was subcutaneously inoculated into the right back of each mouse, and when the mean tumor volume reaches approximately 139.94 mm3 (day 26 after inoculation), group administration was started (intragastric administration, twice a day, 14 days in total). Animals were monitored daily for health and mortality, and tumor diameters were measured twice a week using vernier calipers to see if tumor growth could be inhibited, delayed, or cured.

The subject of data set [4] is human diffuse large B lymphoma (TMD-8). Description: In-vitro tumor cell proliferation inhibition (CCK-8), TMD-8. The settings on record: TMD8, 72 h, read-out: Tumor cell proliferation inhibitory activity (IC50, nM) TMD-8.
Experimental: as §11, §12, §13, §14
The nature of data set [5]: Oral pharmacokinetic experiment in SD rats. The following applies: for oral bioavailability relative to ibrutinib: oral 10 mg/kg; for AUC0-C(ng/h/mL) / AUC0-t (ng/h/mL) / Cmax / Tmax / half-life: oral (intragastric) 10 mg/kg; for AUC0-C(ng/h/mL) / AUC0-t (ng/h/mL) / bioavailability / Cmax / Tmax / half-life: mean n = 3; for bioavailability / Cmax / Tmax / half-life: rat, plasma; for bioavailability: oral 10 mg/kg vs intravenous 2 mg/kg. The data set is classed as in vivo. Here is the method: SD rats were used as experimental animals and were subjected to intragastric administration in a dose of 10 mg/kg and tail-vein intravenous injection in a dose of 2 mg/kg. The tail-vein blood sampling time points in the intragastric administration were 0.17, 0.33, 0.5, 1, 1.5, 2, 4, 6, 8, 12, and 24 hours; the blood sampling time points in the intravenous administration were 0.05, 0.1, 0.17, 0.5, 1, 2, 4, 6, 8, 12, and 24 hours. 0.3 ml of whole blood was taken, and 0.1 ml of plasma after centrifugation was taken and analyzed by LC-MS.

The target in the next data set is BLK (Homo sapiens (Human), UniProt P51451). Description: Kinase selectivity experiment, BLK. The format is biochemical. The settings on record: read-out: Inhibitory activity against BLK (IC50). The protocol:
as §1, §2, §3, §4, §5, §6, §7, §8, §9, §10

For the next data set, the target named is HCK (Homo sapiens (Human), UniProt P08631). Description: Kinase selectivity experiment, HCK. The data set is classed as biochemical. The settings on record: read-out: Inhibitory activity against HCK (IC50). Here is the method: as §1, §2, §3, §4, §5, §6, §7, §8, §9, §10
Sequence of HCK (P08631 whole entry, species assumed): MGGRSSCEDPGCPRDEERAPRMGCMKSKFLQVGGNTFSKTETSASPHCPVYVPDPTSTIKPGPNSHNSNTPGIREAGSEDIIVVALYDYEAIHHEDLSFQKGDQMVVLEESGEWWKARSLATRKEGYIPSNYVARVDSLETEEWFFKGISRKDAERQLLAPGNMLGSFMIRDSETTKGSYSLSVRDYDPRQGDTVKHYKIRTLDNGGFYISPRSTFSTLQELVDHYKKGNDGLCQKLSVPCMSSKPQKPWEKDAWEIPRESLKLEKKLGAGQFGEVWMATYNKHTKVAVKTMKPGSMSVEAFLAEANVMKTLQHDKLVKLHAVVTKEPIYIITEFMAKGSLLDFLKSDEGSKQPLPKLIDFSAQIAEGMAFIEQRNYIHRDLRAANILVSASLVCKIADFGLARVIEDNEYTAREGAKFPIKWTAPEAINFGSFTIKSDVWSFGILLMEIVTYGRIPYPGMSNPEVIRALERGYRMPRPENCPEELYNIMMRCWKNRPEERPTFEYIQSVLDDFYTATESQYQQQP
For another data set, the target named is BTK Kinase (Homo sapiens (Human), UniProt Q06187). Description: In-vitro Btk kinase inhibitory activity assay. The format is biochemical.
Sequence of BTK Kinase (Q06187 whole entry): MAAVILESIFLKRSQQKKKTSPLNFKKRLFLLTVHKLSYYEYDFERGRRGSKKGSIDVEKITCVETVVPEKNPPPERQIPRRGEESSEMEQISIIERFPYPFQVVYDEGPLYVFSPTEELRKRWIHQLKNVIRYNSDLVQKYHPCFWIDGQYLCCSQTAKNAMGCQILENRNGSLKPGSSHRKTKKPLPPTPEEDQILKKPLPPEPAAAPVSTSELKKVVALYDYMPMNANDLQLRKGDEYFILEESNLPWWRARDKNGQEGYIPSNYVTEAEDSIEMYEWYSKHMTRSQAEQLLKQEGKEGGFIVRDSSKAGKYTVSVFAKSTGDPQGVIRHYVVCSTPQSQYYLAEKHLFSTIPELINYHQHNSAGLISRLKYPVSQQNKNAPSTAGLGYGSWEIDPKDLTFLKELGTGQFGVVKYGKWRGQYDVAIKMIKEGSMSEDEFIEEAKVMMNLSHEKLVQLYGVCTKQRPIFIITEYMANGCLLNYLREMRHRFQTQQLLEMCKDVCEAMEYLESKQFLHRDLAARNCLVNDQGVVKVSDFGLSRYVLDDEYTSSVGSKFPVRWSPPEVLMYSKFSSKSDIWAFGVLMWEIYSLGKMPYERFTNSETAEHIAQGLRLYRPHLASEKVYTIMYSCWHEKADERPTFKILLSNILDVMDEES

The structures appear in SMILES notation. pIC50: −log10 of the molar value. Where only a bound is given, the exact number is not on record here.

Sequence of JAK3 (P52333 whole entry, species assumed): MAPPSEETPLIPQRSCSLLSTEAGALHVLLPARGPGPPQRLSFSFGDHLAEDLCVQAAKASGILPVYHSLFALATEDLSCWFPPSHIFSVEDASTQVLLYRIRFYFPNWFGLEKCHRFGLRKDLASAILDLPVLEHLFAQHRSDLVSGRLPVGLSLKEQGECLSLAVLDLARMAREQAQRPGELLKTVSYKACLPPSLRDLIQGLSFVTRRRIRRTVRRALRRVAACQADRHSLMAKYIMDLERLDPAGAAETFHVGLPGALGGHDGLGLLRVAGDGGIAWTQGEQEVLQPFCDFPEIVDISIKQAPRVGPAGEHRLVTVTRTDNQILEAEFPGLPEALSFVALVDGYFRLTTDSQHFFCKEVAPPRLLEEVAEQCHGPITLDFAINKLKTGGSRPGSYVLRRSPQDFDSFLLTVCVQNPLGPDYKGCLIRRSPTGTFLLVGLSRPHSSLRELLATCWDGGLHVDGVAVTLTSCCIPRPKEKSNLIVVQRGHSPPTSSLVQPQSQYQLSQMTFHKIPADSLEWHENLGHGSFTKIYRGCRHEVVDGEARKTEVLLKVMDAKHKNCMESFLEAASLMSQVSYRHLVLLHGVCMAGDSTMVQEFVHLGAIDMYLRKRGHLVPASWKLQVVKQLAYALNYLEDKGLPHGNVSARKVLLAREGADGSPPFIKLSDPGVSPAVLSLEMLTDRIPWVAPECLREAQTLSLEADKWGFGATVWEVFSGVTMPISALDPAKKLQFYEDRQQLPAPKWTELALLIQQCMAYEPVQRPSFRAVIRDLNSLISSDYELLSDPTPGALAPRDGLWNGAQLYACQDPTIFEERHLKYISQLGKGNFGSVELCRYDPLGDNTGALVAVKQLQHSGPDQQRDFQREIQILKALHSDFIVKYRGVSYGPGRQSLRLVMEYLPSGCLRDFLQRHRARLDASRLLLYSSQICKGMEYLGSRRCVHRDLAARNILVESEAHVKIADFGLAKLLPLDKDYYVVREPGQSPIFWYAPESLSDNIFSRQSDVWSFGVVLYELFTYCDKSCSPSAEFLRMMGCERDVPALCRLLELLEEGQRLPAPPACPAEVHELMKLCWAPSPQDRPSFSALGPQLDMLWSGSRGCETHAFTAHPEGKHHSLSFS
Sequence of FGR (P09769 whole entry, species assumed): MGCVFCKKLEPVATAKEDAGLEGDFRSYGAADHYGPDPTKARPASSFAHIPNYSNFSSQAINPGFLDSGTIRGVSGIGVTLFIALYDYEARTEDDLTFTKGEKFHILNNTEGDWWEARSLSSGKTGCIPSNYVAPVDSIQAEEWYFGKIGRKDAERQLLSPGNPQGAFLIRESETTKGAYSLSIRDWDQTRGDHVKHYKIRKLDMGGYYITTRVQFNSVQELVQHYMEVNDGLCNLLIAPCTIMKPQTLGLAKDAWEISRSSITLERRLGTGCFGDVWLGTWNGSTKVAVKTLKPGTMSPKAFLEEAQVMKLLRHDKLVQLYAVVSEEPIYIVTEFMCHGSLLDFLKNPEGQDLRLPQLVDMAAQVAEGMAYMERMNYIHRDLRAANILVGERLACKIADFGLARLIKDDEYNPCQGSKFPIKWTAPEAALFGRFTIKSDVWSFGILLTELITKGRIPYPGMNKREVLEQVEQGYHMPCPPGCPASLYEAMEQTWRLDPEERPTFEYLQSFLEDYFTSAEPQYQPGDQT
Sequence of ITK (Q08881 whole entry, species assumed): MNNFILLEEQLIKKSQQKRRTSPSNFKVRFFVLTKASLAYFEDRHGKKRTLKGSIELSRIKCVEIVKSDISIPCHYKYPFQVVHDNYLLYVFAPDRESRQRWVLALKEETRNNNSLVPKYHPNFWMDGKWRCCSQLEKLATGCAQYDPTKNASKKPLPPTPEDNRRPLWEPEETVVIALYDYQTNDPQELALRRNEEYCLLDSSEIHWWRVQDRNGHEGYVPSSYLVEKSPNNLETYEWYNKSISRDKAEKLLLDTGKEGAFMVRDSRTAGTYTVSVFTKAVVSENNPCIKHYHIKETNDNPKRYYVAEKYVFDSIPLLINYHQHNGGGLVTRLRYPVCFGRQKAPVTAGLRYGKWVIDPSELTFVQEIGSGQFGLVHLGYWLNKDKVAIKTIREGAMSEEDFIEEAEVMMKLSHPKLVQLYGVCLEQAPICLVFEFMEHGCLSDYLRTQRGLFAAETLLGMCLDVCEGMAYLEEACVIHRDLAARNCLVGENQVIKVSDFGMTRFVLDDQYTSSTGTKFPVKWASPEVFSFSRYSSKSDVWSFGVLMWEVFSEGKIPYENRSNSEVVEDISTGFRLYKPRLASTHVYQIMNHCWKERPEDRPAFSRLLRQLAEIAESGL
Sequence of BLK (P51451 whole entry, species assumed): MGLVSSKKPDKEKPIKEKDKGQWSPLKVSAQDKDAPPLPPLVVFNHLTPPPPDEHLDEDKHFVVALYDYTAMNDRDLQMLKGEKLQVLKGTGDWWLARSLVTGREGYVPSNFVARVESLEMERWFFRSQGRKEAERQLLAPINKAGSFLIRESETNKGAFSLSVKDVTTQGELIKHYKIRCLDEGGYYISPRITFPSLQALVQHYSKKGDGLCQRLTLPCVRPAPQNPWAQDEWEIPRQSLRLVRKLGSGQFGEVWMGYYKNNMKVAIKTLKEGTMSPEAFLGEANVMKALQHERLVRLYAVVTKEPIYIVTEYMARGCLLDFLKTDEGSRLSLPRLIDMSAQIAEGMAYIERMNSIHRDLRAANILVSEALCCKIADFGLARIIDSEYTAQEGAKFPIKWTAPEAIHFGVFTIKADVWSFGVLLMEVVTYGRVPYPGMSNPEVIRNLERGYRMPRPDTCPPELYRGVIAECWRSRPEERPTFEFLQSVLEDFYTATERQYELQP

A word on the pIC50: it is the IC50 on a negative log10 scale, so that one unit is a factor of ten. By bioavailability is commonly meant the share of a dose that reaches the circulation, judged against a reference dose that is usually intravenous. Broadly, the Cmax is the maximum level reached in the sampled fluid or tissue. Broadly, the Tmax is the time from dosing to the highest level. Usually half-life stands for how long it takes for the measured level to halve. A low value points to fast loss. As for `C=CC(=O)N1CCC[C@@H](n2nc(-c3ccc(Oc4ccccc4)nc3)c3c(N)ncnc32)C1` [Compound 15a, (R)-1-(3-(4-amino-3-(6-phenoxypyridin-3-yl)-1H-pyrazolo[3,4-d]pyrimidin-1-yl)piperidin-1-yl) prop-2-en-1-one], on JAK3, the pIC50 was below 6.00. In [1], the “level of IL-1β in serum (in words)” value is on record as “significantly reduce”; the “IL-1β” value was 18.72 ± 6.6 ng/L; the “inflammatory cell infiltration, synovial hyperplasia, inflammatory granulation tissue formation, necrotic tissue” value was “significantly improved”. For the same compound, the IC50 in data set [2] was found to be 6.17 µM. In addition, on FGR, the pIC50 was below 6.00. Also, the pIC50 at ITK was below 6.00. In addition, in data set [3], the “TGI*(14 days) (%) calculated on the basis of tumor volume” value is 65.01% and the “TGI**(14 days) (%) calculated on the basis of tumor weight” value was 61.00%. For the same compound, in data set [4], the IC50 worked out at 8.16 nM. In [5], the “oral bioavailability relative to ibrutinib” value is recorded as 1.67 times, the AUC0-C(ng/h/mL) was 698 ng·h/mL, the AUC0-t (ng/h/mL) came to 624 ng·h/mL and the bioavailability was determined as 20.9%. In data set [5], the Cmax worked out at 292 ng/mL, the Tmax was 0.333 h and the half-life is 6.17 h. Besides, the pIC50 on BLK was 7.52. In addition, the pIC50 at HCK is below 6.00. At BTK Kinase, the pIC50 is 8.49.

In the case of `C=CC(=O)N1CC[C@@H](n2nc(-c3ccc(Oc4ccccc4)nc3F)c3c(N)ncnc32)C1` [Compound 24a, (R)-1-(3-(4-amino-3-(2-fluoro-6-phenoxypyridin-3-yl)-1H-pyrazolo[3,4-d]pyrimidin-1-yl)pyrrolidin-1-yl)prop-2-en-1-one], the pIC50 at JAK3 is below 6.00. For the same compound, in data set [1], the “level of IL-1β in serum (in words)” value was “significantly reduce”; the “IL-1β” value was 19.32 ± 4.2 ng/L; the “inflammatory cell infiltration, synovial hyperplasia, inflammatory granulation tissue formation, necrotic tissue” value is recorded as “significantly improved”. Further, the IC50 in data set [2] turned out to be 9.46 µM. Moreover, the pIC50 at FGR was below 6.00. Besides, on ITK, the pIC50 was below 6.00. In addition, in data set [3], the “TGI*(14 days) (%) calculated on the basis of tumor volume” value is 73.80% and the “TGI**(14 days) (%) calculated on the basis of tumor weight” value is listed as 65.19%. In addition, in data set [4], the IC50 is 16.9 nM. Besides, in [5], the “oral bioavailability relative to ibrutinib” value amounted to 4.62 times, the AUC0-C(ng/h/mL) worked out at 2140 ng·h/mL, the AUC0-t (ng/h/mL) turned out to be 2080 ng·h/mL and the bioavailability worked out at 57.8%. Moreover, in [5], the concentration peaked (Cmax) at 548 ng/mL, the Tmax is 0.75 h and the half-life is 1.7 h. The pIC50 on BLK was 8.27. Moreover, on HCK, the negative-log IC50 (pIC50) was below 6.00. This compound also showed a pIC50 against BTK Kinase of 8.60.
